“And” between values parts separate entries of the source, which are not always exact repeats. Equal entries are not always repeated. Where two headings read alike, the source gives them in different places.
Legend:
[1] = system: subcutaneous SW1222 xenografts (A33 antigen-expressing human colorectal carcinoma); settings: 24 h accumulation interval, Zeglis 2013, cited from earlier work
[2] = Dosimetry calculations (OLINDA) for huA33-based PET imaging strategies; set-up: species or system human (70-kg Standard Man model, from mouse biodistribution); settings: pretargeting
Experimental: The radiation dosimetry of ^64Cu-Tz-SarAr was performed to ensure the selective delivery of radioisotopes to malignant tissues at radiation doses below the doses of traditional radioimmunoconjugates. To this end, dosimetry calculations were performed using the biodistribution data collected and the OLINDA computer program to determine the mean organ absorbed doses (rad/mCi) and effective dose (rem/mCi) for each strategy (Table 23). The total effective dose of the ^64Cu-Tz-SarAr pretargeting strategy with a 24 h interval period was 0.041 rem/mCi, a slight reduction compared to the 0.046 rem/mCi effective dose created by ^64Cu-Tz-NOTA. This difference was due to the significant reduction in the mean organ absorbed dose to the large intestine. Moreover, the total effective dose of the ^64Cu-Tz-SarAr pretargeting strategy was inversely proportional to the duration of the accumulation interval. For example, the effective dose decreased from 0.041 rem/mCi with a 24 h interval to 0.038 rem/mCi with a 48 h interval to 0.034 with a 120 h interval.
Mouse biodistribution data were expressed as normal-organ mean standard uptake values (SUVs) versus time post-administration. In first order, that SUVs were independent of body mass and thus the same among species, the mean SUV in mouse organ i, SUVOrgan i|Mouse, was converted to the fraction of the injected dose in each human organ I, FIDOrgan I|Human, using the following formula:
[formula] and the organ and total-body masses of the 70-kg Standard Man anatomic model. […] The cumulated activity, or residence time, in human organ i, μCi, in μCi h/μCi, was then calculated by analytically integrating the time-activity function in organ i, replacing the biological clearance constant, (λbλj, for each component j of the fitted exponential function with the corresponding effective clearance constant, (λeλj=(λbλj+λp, where λp is the physical decay constant of the radionuclide. The resulting organ residence times were entered into the OLINDA computer program to yield the mean organ absorbed doses and effective dose in rad/mCi and rem/mCi, respectively. Statistical Analysis

O=C([O-])CN1CCN(CC(=O)[O-])CC(Cc2ccc(NC(=O)CCCC(=O)NCc3ccc(-c4nncnn4)cc3)cc2)N(CC(=O)[O-])CC1.[64Cu+2] (centres unmarked) [^64Cu-Tz-NOTA]
Blood activity concentration ([1]; 1 h p.i.): 3.47 ± 0.63 % ID/g | Bone activity concentration ([1]; 1 h p.i.): 0.3 ± 0.16 % ID/g | Heart activity concentration ([1]; 1 h p.i.): 1.09 ± 0.18 % ID/g | Kidney activity concentration ([1]; 1 h p.i.): 1.3 ± 0.15 % ID/g | Large Intestine activity concentration ([1]; 1 h p.i.): 13.29±3.15 % ID/g | Liver activity concentration ([1]; 1 h p.i.): 2.19 ± 0.25 % ID/g | Lung activity concentration ([1]; 1 h p.i.): 1.58 ± 0.46 % ID/g | Muscle activity concentration ([1]; 1 h p.i.): 0.22 ± 0.04 % ID/g | Small Intestine activity concentration ([1]; 1 h p.i.): 0.03 ± 0.04 % ID/g | Spleen activity concentration ([1]; 1 h p.i.): 0.63 ± 0.07 % ID/g | Stomach activity concentration ([1]; 1 h p.i.): 0.45 ± 0.08 % ID/g | Tumor activity concentration ([1]; 1 h p.i.): 4.07 ± 0.25 % ID/g | Tumor/Blood activity concentration ratio ([1]; 1 h p.i.): 1.17 ± 0.22 | Tumor/Bone activity concentration ratio ([1]; 1 h p.i.): 13.72 ± 7.63 | Tumor/Heart activity concentration ratio ([1]; 1 h p.i.): 3.75 ± 0.65 | Tumor/Kidney activity concentration ratio ([1]; 1 h p.i.): 3.14 ± 0.41 | Tumor/Large Intestine activity concentration ratio ([1]; 1 h p.i.): 0.31 ± 0.08 | Tumor/Liver activity concentration ratio ([1]; 1 h p.i.): 1.86 ± 0.24 | Tumor/Lung activity concentration ratio ([1]; 1 h p.i.): 2.57 ± 0.76 | Tumor/Muscle activity concentration ratio ([1]; 1 h p.i.): 18.42 ± 3.71 | Tumor/Small Intestine activity concentration ratio ([1]; 1 h p.i.): 119.52 ± 148.82 | Tumor/Spleen activity concentration ratio ([1]; 1 h p.i.): 6.46 ± 0.81 | Tumor/Stomach activity concentration ratio ([1]; 1 h p.i.): 8.96 ± 1.7 | Blood activity concentration ([1]; 4 h p.i.): 2.61 ± 0.83 % ID/g | Bone activity concentration ([1]; 4 h p.i.): 0.27 ± 0.24 % ID/g | Heart activity concentration ([1]; 4 h p.i.): 0.91 ± 0.27 % ID/g | Kidney activity concentration ([1]; 4 h p.i.): 0.95 ± 0.31 % ID/g | Large Intestine activity concentration ([1]; 4 h p.i.): 9.43 ± 4.22 % ID/g | Liver activity concentration ([1]; 4 h p.i.): 1.26 ± 0.3 % ID/g | Lung activity concentration ([1]; 4 h p.i.): 1.6 ± 0.39 % ID/g | Muscle activity concentration ([1]; 4 h p.i.): 0.14 ± 0.03 % ID/g | Small Intestine activity concentration ([1]; 4 h p.i.): 0.38 ± 0.08 % ID/g | Spleen activity concentration ([1]; 4 h p.i.): 0.51 ± 0.22 % ID/g | Stomach activity concentration ([1]; 4 h p.i.): 0.25 ± 0.12 % ID/g | Tumor activity concentration ([1]; 4 h p.i.): 4.09±0.61 % ID/g | Tumor/Blood activity concentration ratio ([1]; 4 h p.i.): 1.57 ± 0.55 | Tumor/Bone activity concentration ratio ([1]; 4 h p.i.): 14.95 ± 13.2 | Tumor/Heart activity concentration ratio ([1]; 4 h p.i.): 4.51 ± 1.49 | Tumor/Kidney activity concentration ratio ([1]; 4 h p.i.): 4.32 ± 1.56 | Tumor/Large Intestine activity concentration ratio ([1]; 4 h p.i.): 0.43 ± 0.2 | Tumor/Liver activity concentration ratio ([1]; 4 h p.i.): 3.23 ± 0.9 | Tumor/Lung activity concentration ratio ([1]; 4 h p.i.): 2.55 ± 0.73 | Tumor/Muscle activity concentration ratio ([1]; 4 h p.i.): 29.38 ± 8.5 | Tumor/Small Intestine activity concentration ratio ([1]; 4 h p.i.): 10.83 ± 2.8 | Tumor/Spleen activity concentration ratio ([1]; 4 h p.i.): 7.97 ± 3.57 | Tumor/Stomach activity concentration ratio ([1]; 4 h p.i.): 16.17 ± 8.21 | Blood activity concentration ([1]; 12 h p.i.): 2.31 ± 0.4 % ID/g | Bone activity concentration ([1]; 12 h p.i.): 0.35 ± 0.11 % ID/g | Heart activity concentration ([1]; 12 h p.i.): 0.92 ± 0.14 % ID/g | Kidney activity concentration ([1]; 12 h p.i.): 0.91 ± 0.29 % ID/g | Large Intestine activity concentration ([1]; 12 h p.i.): 2.92 ± 1.34 % ID/g | Liver activity concentration ([1]; 12 h p.i.): 0.93 ± 0.23 % ID/g | Lung activity concentration ([1]; 12 h p.i.): 1.09 ± 0.38 % ID/g | Muscle activity concentration ([1]; 12 h p.i.): 0.16 ± 0.02 % ID/g | Small Intestine activity concentration ([1]; 12 h p.i.): 0.77 ± 0.51 % ID/g | Spleen activity concentration ([1]; 12 h p.i.): 0.59 ± 0.25 % ID/g | Stomach activity concentration ([1]; 12 h p.i.): 0.52 ± 0.64 % ID/g | Tumor activity concentration ([1]; 12 h p.i.): 4.20 ± 0.84 % ID/g | Tumor/Bone activity concentration ratio ([1]; 12 h p.i.): 11.98 ± 4.51 | Tumor/Heart activity concentration ratio ([1]; 12 h p.i.): 4.58 ± 1.16 | Tumor/Kidney activity concentration ratio ([1]; 12 h p.i.): 4.6 ± 1.71 | Tumor/Large Intestine activity concentration ratio ([1]; 12 h p.i.): 1.44±0.72 | Tumor/Liver activity concentration ratio ([1]; 12 h p.i.): 4.53 ± 1.45 | Tumor/Lung activity concentration ratio ([1]; 12 h p.i.): 3.87 ± 1.55 | Tumor/Small Intestine activity concentration ratio ([1]; 12 h p.i.): 5.46 ± 3.81 | Tumor/Spleen activity concentration ratio ([1]; 12 h p.i.): 7.1 ± 3.34 | Tumor/Stomach activity concentration ratio ([1]; 12 h p.i.): 8.12 ± 10.12 | Blood activity concentration ([1]; 24 h p.i.): 2.07 ± 0.49 % ID/g | Bone activity concentration ([1]; 24 h p.i.): 0.29 ± 0.07 % ID/g | Heart activity concentration ([1]; 24 h p.i.): 0.82 ± 0.21 % ID/g | Kidney activity concentration ([1]; 24 h p.i.): 0.7 ± 0.19 % ID/g | Large Intestine activity concentration ([1]; 24 h p.i.): 1.67 ± 0.88 % ID/g | Liver activity concentration ([1]; 24 h p.i.): 1.07 ± 0.15 % ID/g | Lung activity concentration ([1]; 24 h p.i.): 1.03 ± 0.31 % ID/g | Muscle activity concentration ([1]; 24 h p.i.): 0.15 ± 0.02 % ID/g | Small Intestine activity concentration ([1]; 24 h p.i.): 0.35 ± 0.04 % ID/g | Spleen activity concentration ([1]; 24 h p.i.): 0.45 ± 0.11 % ID/g | Stomach activity concentration ([1]; 24 h p.i.): 0.16 ± 0.03 % ID/g | Tumor activity concentration ([1]; 24 h p.i.): 3.94 ± 0.92 % ID/g | Tumor/Blood activity concentration ratio ([1]; 24 h p.i.): 1.9 ± 0.63 | Tumor/Bone activity concentration ratio ([1]; 24 h p.i.): 13.43 ± 4.5 | Tumor/Heart activity concentration ratio ([1]; 24 h p.i.): 4.82 ± 1.69 | Tumor/Kidney activity concentration ratio ([1]; 24 h p.i.): 5.61 ± 1.98 | Tumor/Large Intestine activity concentration ratio ([1]; 24 h p.i.): 2.36 ± 1.37 | Tumor/Liver activity concentration ratio ([1]; 24 h p.i.): 3.69 ± 1.01 | Tumor/Lung activity concentration ratio ([1]; 24 h p.i.): 3.83 ± 1.45 | Tumor/Muscle activity concentration ratio ([1]; 24 h p.i.): 26.98 ± 7.41 | Tumor/Small Intestine activity concentration ratio ([1]; 24 h p.i.): 11.4 ± 2.91 | Tumor/Spleen activity concentration ratio ([1]; 24 h p.i.): 8.79 ± 2.98 | Tumor/Stomach activity concentration ratio ([1]; 24 h p.i.): 24.29 ± 6.89

NC12CNCCNCC(NCc3ccc(CNC(=O)CCCC(=O)NCc4ccc(-c5nncnn5)cc4)cc3)(CNCCNC1)CNCCNC2.[64Cu+2] [^64Cu-Tz-SarAr]
Brain absorbed dose ([2]; 24 h interval): 0.0361 rad/mCi | Breasts absorbed dose ([2]; 24 h interval): 0.0323 rad/mCi | Effective Dose ([2]; 24 h interval): 0.041 rem/mCi and 0.0414 rem/mCi | Heart Wall absorbed dose ([2]; 24 h interval): 0.0427 rad/mCi | Kidneys absorbed dose ([2]; 24 h interval): 0.0661 rad/mCi | Lower Lg. Int. Wall absorbed dose ([2]; 24 h interval): 0.0482 rad/mCi | Osteogenic Cells absorbed dose ([2]; 24 h interval): 0.0893 rad/mCi | Ovaries absorbed dose ([2]; 24 h interval): 0.0401 rad/mCi | Pancreas absorbed dose ([2]; 24 h interval): 0.0395 rad/mCi | Skin absorbed dose ([2]; 24 h interval): 0.0297 rad/mCi | Small Intestine absorbed dose ([2]; 24 h interval): 0.0418 rad/mCi | Spleen absorbed dose ([2]; 24 h interval): 0.0370 rad/mCi | Stomach Wall absorbed dose ([2]; 24 h interval): 0.0552 rad/mCi | Testes absorbed dose ([2]; 24 h interval): 0.0345 rad/mCi | Thymus absorbed dose ([2]; 24 h interval): 0.0349 rad/mCi | Upper Lg. Int. Wall absorbed dose ([2]; 24 h interval): 0.0409 rad/mCi | Uterus absorbed dose ([2]; 24 h interval): 0.0410 rad/mCi | Effective Dose ([2]; 48 h interval): 0.038 rem/mCi and 0.0377 rem/mCi | Kidneys absorbed dose ([2]; 48 h interval): 0.0539 rad/mCi | Pancreas absorbed dose ([2]; 48 h interval): 0.0364 rad/mCi | Spleen absorbed dose ([2]; 48 h interval): 0.0205 rad/mCi | Stomach Wall absorbed dose ([2]; 48 h interval): 0.0422 rad/mCi | Uterus absorbed dose ([2]; 48 h interval): 0.0383 rad/mCi | Effective Dose ([2]; 120 h interval): 0.034 rem/mCi and 0.0341 rem/mCi | Heart Wall absorbed dose ([2]; 120 h interval): 0.0330 rad/mCi | Kidneys absorbed dose ([2]; 120 h interval): 0.0566 rad/mCi | Lungs absorbed dose ([2]; 120 h interval): 0.0216 rad/mCi | Osteogenic Cells absorbed dose ([2]; 120 h interval): 0.0720 rad/mCi | Spleen absorbed dose ([2]; 120 h interval): 0.0225 rad/mCi
